Where “and” joins values, the source holds several entries; their conditions need not be identical. Equal entries are not always repeated.
Tested on: K-562 leukemia growth, % test/control
Assay: Anticancer human tumor K-562 cell line growth inhibition;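 for viability, T/C: 100% = DMSO vehicle wells and lower values mean fewer viable cells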
Conditions: spheroids with HUVEC and MSC; for viability, T/C: stronger effect = lower value
Outline: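 Complex spheroids of tumor cells with HUVEC and human MSCs, exposed to iadademstat combined with other agents. Each agent tested in half-log steps from near clinical Cmax (else 10 microM top), DMSO ≤0.25%.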

[1] = curve of first compound, second compound 0.1 µM
[2] = curve of first compound, second compound 0.316 µM
[3] = curve of first compound, second compound 1 µM
[4] = curve of first compound, second compound 3.16 µM
[5] = curve of first compound, second compound 10 µM
[6] = second compound 0.1 µM, first compound 0.00949 µM
[7] = second compound 0.1 µM, first compound 0.03 µM
[8] = second compound 0.1 µM, first compound 0.0949 µM
[9] = second compound 0.1 µM, first compound 0.3 µM
[10] = second compound 0.1 µM, first compound 0.949 µM
[11] = second compound 0.1 µM, first compound 3 µM
[12] = second compound 0.316 µM, first compound 0.00949 µM
[13] = second compound 0.316 µM, first compound 0.03 µM
[14] = second compound 0.316 µM, first compound 0.0949 µM
[15] = second compound 0.316 µM, first compound 0.3 µM
[16] = second compound 0.316 µM, first compound 0.949 µM
[17] = second compound 0.316 µM, first compound 3 µM
[18] = second compound 1 µM, first compound 0.00949 µM
[19] = second compound 1 µM, first compound 0.03 µM
[20] = second compound 1 µM, first compound 0.0949 µM
[21] = second compound 1 µM, first compound 0.3 µM
[22] = second compound 1 µM, first compound 0.949 µM
[23] = second compound 1 µM, first compound 3 µM
[24] = second compound 3.16 µM, first compound 0.00949 µM
[25] = second compound 3.16 µM, first compound 0.03 µM
[26] = second compound 3.16 µM, first compound 0.0949 µM
[27] = second compound 3.16 µM, first compound 0.3 µM
[28] = second compound 3.16 µM, first compound 0.949 µM
[29] = second compound 3.16 µM, first compound 3 µM
[30] = second compound 10 µM, first compound 0.00949 µM
[31] = second compound 10 µM, first compound 0.03 µM
[32] = second compound 10 µM, first compound 0.0949 µM
[33] = second compound 10 µM, first compound 0.3 µM
[34] = second compound 10 µM, first compound 0.949 µM
[35] = second compound 10 µM, first compound 3 µM

In the case of `Nc1ccccc1NC(=O)c1ccc(CNC(=O)OCc2cccnc2)cc1` + NC1CC1c1ccc(-c2cccc(O)c2)cc1, the IC50 [1] is reported as 180 nM, the IC50 [2] is reported as 173 nM and the IC50 [3] is reported as 165 nM. For the same compound, the IC50 [4] was 152 nM, the IC50 [5] was 121 nM and the viability, T/C [6] was 114%. It also gave a viability, T/C [7] of 111%, a viability, T/C [8] of 103% and a viability, T/C [9] of 7.04%. The viability, T/C [10] was 0.24%, the viability, T/C [11] was 1.31% and the viability, T/C [12] was 114%. The viability, T/C [13] was 109%, the viability, T/C [14] was 97.1% and the viability, T/C [15] was 6.48%. The viability, T/C [16] was 0.2%, the viability, T/C [17] was 0.13% and the viability, T/C [18] was 111%. It also gave a viability, T/C [19] of 110%, a viability, T/C [20] of 92% and a viability, T/C [21] of 5.06%. For the same compound, the viability, T/C [22] was 0.25%, the viability, T/C [23] was 0.13% and the viability, T/C [24] was 111%. It also gave a viability, T/C [25] of 111%, a viability, T/C [26] of 81.3% and a viability, T/C [27] of 4.61%. The viability, T/C [28] was 0.18%, the viability, T/C [29] was 1.02% and the viability, T/C [30] was 104%. It also gave a viability, T/C [31] of 98.5%, a viability, T/C [32] of 62.6% and a viability, T/C [33] of 3.34%. It also gave a viability, T/C [34] of 0.19% and a viability, T/C [35] of 1.28%.

With `CC1COCCN1c1cc(-c2ccnn2C)c2ccnc(-c3ccn[nH]3)c2n1` (centres undefined) the viability, T/C (compound 0.00316 µM) was 88.3% and 28.6%, the viability, T/C (compound 0.01 µM) was 59.4% and 15.3% and the viability, T/C (compound 0.0316 µM) was 19.1% and 3.08%. The viability, T/C (compound 0.1 µM) was 5.33% and 2.16%, the viability, T/C (compound 0.316 µM) was 3.07% and 2.39% and the viability, T/C (compound 1 µM) was 2.84% and 2.02%. For the same compound, the IC50 (curve of compound) was 13.1 nM and < 3.16 nM.

With `CC(C)c1c(-c2ccccc2)nc2c(C#N)c[nH]n2c1=O` + NC1CCC(NC2CC2c2ccccc2)CC1 the IC50 [1] was greater than 10000 nM, the IC50 [2] was greater than 10000 nM and the IC50 [3] was greater than 10000 nM. The IC50 [4] was greater than 10000 nM, the IC50 [5] was greater than 10000 nM and the viability, T/C (second compound 0.1 µM, first compound 0.0316 µM) was 98.7%. For the same compound, the viability, T/C (second compound 0.1 µM, first compound 0.1 µM) was 95.2%, the viability, T/C (second compound 0.1 µM, first compound 0.316 µM) was 96.6% and the viability, T/C (second compound 0.1 µM, first compound 1 µM) was 100%. For the same compound, the viability, T/C (second compound 0.1 µM, first compound 3.16 µM) was 99.1%, the viability, T/C (second compound 0.1 µM, first compound 10 µM) was 98.9% and the viability, T/C (second compound 0.316 µM, first compound 0.0316 µM) was 100%. For the same compound, the viability, T/C (second compound 0.316 µM, first compound 0.1 µM) was 101%, the viability, T/C (second compound 0.316 µM, first compound 0.316 µM) was 99.8% and the viability, T/C (second compound 0.316 µM, first compound 1 µM) was 98.6%. It also gave a viability, T/C (second compound 0.316 µM, first compound 3.16 µM) of 99.6%, a viability, T/C (second compound 0.316 µM, first compound 10 µM) of 98.9% and a viability, T/C (second compound 1 µM, first compound 0.0316 µM) of 102%. The viability, T/C (second compound 1 µM, first compound 0.1 µM) was 102%, the viability, T/C (second compound 1 µM, first compound 0.316 µM) was 100% and the viability, T/C (second compound 1 µM, first compound 1 µM) was 99.4%. The viability, T/C (second compound 1 µM, first compound 3.16 µM) was 100%, the viability, T/C (second compound 1 µM, first compound 10 µM) was 101% and the viability, T/C (second compound 3.16 µM, first compound 0.0316 µM) was 102%. It also gave a viability, T/C (second compound 3.16 µM, first compound 0.1 µM) of 102%, a viability, T/C (second compound 3.16 µM, first compound 0.316 µM) of 99.7% and a viability, T/C (second compound 3.16 µM, first compound 1 µM) of 102%. For the same compound, the viability, T/C (second compound 3.16 µM, first compound 3.16 µM) was 103%, the viability, T/C (second compound 3.16 µM, first compound 10 µM) was 100% and the viability, T/C (second compound 10 µM, first compound 0.0316 µM) was 95.6%. It also gave a viability, T/C (second compound 10 µM, first compound 0.1 µM) of 98.7%, a viability, T/C (second compound 10 µM, first compound 0.316 µM) of 96.8% and a viability, T/C (second compound 10 µM, first compound 1 µM) of 97%. It also gave a viability, T/C (second compound 10 µM, first compound 3.16 µM) of 97.9% and a viability, T/C (second compound 10 µM, first compound 10 µM) of 98.4%.

For `CC[C@@]1(O)C(=O)OCc2c1cc1n(c2=O)Cc2cc3c(CN(C)C)c(O)ccc3nc2-1`, the viability, T/C (compound 0.000316 µM) was 98.4% and 100%, the viability, T/C (compound 0.001 µM) was 71.1% and 99.8% and the viability, T/C (compound 0.00316 µM) was 34.6% and 58.8%. For the same compound, the viability, T/C (compound 0.01 µM) was 32.6% and 50.7%, the viability, T/C (compound 0.0316 µM) was 20.8% and 24.8% and the viability, T/C (compound 0.1 µM) was 11.2%. For the same compound, the IC50 (curve of compound) was 2.23 nM and 7.98 nM.

`NS(=O)(=O)OCC1CC(n2ccc3c(NC4CCc5ccccc54)ncnc32)CC1O` (centres undefined) + NC1CC1c1ccc(-c2cccc(O)c2)cc1 was tested, and the IC50 [1] was less than 9.49 nM, the IC50 [2] was less than 9.49 nM and the IC50 [3] was less than 9.49 nM. It also gave an IC50 [4] of less than 9.49 nM, an IC50 [5] of less than 9.49 nM and a viability, T/C [6] of 50.7%. The viability, T/C [7] was 32.8%, the viability, T/C [8] was 37.7% and the viability, T/C [9] was 19.2%. The viability, T/C [10] was 11.2%, the viability, T/C [11] was 4.04% and the viability, T/C [12] was 47%. For the same compound, the viability, T/C [13] was 29.9%, the viability, T/C [14] was 32% and the viability, T/C [15] was 16.3%. For the same compound, the viability, T/C [16] was 10.3%, the viability, T/C [17] was 3.18% and the viability, T/C [18] was 46.8%. It also gave a viability, T/C [19] of 27.1%, a viability, T/C [20] of 32.8% and a viability, T/C [21] of 14.8%. For the same compound, the viability, T/C [22] was 10.3%, the viability, T/C [23] was 3.44% and the viability, T/C [24] was 45.6%. For the same compound, the viability, T/C [25] was 25.7%, the viability, T/C [26] was 30.2% and the viability, T/C [27] was 13.2%. For the same compound, the viability, T/C [28] was 8.49%, the viability, T/C [29] was 1.8% and the viability, T/C [30] was 30.5%. The viability, T/C [31] was 19.8%, the viability, T/C [32] was 21.2% and the viability, T/C [33] was 9.28%. For the same compound, the viability, T/C [34] was 2.95% and the viability, T/C [35] was 0.72%.
